Measurements reported in US20220033397A1, “PHARMACEUTICAL COMPOUNDS AND THEIR USE AS INHIBITORS OF UBIQUITIN SPECIFIC PROTEASE 19 (USP19)” (ALMAC DISCOVERY LIMITED, priority 2018, published 2022).
pIC50: −log10 of the molar value.

biological target: T1, Full-length USP19 (Homo sapiens, UniProt O94966); assay: USP19 fluorescence polarisation (FP) homogeneous assay with Ubiquitin-Lys-TAMRA substrate; format: biochemical; details: 2.5 nM USP19, 30 min pre-incubation, average of at least two duplicate experiments
T1 construct: Full-length USP19 was purchased from Boston Biochem (E-576); purchased Boston Biochem E-576
T1 sequence (O94966 1-1318): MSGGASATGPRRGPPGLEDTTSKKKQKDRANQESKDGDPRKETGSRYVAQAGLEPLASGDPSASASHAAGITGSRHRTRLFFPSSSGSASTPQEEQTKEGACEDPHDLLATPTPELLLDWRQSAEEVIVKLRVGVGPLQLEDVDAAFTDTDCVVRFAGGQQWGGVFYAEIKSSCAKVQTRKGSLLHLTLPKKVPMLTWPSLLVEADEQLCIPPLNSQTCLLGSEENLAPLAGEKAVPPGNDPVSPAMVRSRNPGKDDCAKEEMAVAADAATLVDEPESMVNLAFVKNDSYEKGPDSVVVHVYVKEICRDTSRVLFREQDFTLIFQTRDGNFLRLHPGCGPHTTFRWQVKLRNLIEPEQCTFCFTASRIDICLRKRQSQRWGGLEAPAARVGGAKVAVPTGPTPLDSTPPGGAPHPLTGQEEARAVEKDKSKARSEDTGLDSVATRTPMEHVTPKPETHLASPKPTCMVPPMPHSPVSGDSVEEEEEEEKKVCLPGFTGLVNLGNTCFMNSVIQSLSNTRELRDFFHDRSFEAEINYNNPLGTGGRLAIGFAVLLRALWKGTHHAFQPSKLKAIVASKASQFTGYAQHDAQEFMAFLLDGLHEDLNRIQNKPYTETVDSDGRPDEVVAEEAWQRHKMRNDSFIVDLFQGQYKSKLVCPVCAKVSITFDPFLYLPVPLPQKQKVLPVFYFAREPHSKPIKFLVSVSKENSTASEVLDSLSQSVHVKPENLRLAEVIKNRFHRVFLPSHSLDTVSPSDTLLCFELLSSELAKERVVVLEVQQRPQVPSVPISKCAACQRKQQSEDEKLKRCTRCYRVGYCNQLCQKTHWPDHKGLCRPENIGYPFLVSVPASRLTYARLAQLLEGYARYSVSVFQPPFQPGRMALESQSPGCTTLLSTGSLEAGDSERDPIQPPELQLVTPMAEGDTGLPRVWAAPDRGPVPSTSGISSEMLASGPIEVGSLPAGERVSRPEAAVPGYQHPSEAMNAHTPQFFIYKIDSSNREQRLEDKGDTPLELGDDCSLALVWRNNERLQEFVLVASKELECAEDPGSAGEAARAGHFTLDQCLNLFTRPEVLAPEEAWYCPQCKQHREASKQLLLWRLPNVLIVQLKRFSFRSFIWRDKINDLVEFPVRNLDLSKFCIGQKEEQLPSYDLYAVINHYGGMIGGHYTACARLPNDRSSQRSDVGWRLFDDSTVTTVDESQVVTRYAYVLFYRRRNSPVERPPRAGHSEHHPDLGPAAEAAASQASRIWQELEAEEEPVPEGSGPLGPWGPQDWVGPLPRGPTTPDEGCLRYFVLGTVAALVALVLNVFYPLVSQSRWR
Description: Unless otherwise stated, all other reagents were purchased from Sigma. Enzymatic reactions were conducted in black flat bottom polystyrene 384-well plates (Nunc) and 30 μL total volume. […] Inhibitors were stored as 10 mM DMSO stocks in an inert environment (low humidity, dark, low oxygen, room temperature) using the Storage Pod System and serial dilutions were prepared in buffer just prior to the assay (from 200 μM to 2 μM, 8-18 data point curve).
Following incubation at RT for 30 min, the enzymatic reactions were initiated by dispensing the Ub substrate (500 nM, 10 μL). FP was measured every 15 min over a period of 90 min (within the linear range of the assay) using a Synergy 4 plate reader (BioTek) exciting at 530 nm and measuring the amount of parallel and perpendicular light at 575 nm. The FP signal was subsequently normalised to the no compound control.

First: CN(Cc1ccccc1)C(=O)N1CCC(O)(Cn2cnc(-c3ccccc3F)cc2=O)CC1 [Example 81, N-Benzyl-4-((4-(2-fluorophenyl)-6-oxopyrimidin-1(6H)-yl)methyl)-4-hydroxy-N-methylpiperidine-1-carboxamide]
Second: O=C(N1CCC(O)(Cn2cnc(-c3ccccc3)cc2=O)CC1)N1CCOC[C@H]1c1ccccc1 [Example 295, (R)-3-((4-Hydroxy-1-(3-phenylmorpholine-4-carbonyl)piperidin-4-yl)methyl)-6-phenylpyrimidin-4(3H)-one]
The pIC50 of the first is lower: 3.60 to 4.30 for the first, 5.30 to 6.30 for the second.

Compared with C[C@H](CC1CCCCC1)C(=O)N1CCC(O)(Cn2cnc3cc(F)c(F)cc3c2=O)C2(CCCC2)C1 (stereo partly drawn) [Example 151, 3-((7-((R)-3-Cyclohexyl-2-methylpropanoyl)-10-hydroxy-7-azaspiro[4.5]decan-10-yl)methyl)-6,7-difluoroquinazolin-4(3H)-one], C[C@H](CC(F)(F)F)C(=O)N1CCC(O)(Cn2cnc3cc(F)c(Cl)cc3c2=O)C2(CCCC2)C1 (stereo partly drawn) [Example 149, 6-Chloro-7-fluoro-3-((10-hydroxy-7-((R)-4,4,4-trifluoro-2-methylbutanoyl)-7-azaspiro[4.5]decan-10-yl)methyl)quinazolin-4(3H)-one] is lower in pIC50: greater than 6.30 for the first, 4.30 to 5.30 for the second. The first is the more potent here.

First: O=C(N1CCC(O)(Cn2cnc(-c3ccccc3)cc2=O)C2(CCCC2)C1)N1CCNCC1c1cccnc1 (stereo not shown) [Example 274, 3-((10-Hydroxy-7-(2-(pyridin-3-yl)piperazine-1-carbonyl)-7-azaspiro[4.5]decan-10-yl)methyl)-6-phenylpyrimidin-4(3H)-one]
Second: O=C(N1CC[C@@](O)(Cn2cnc(-c3ccccc3)cc2=O)C2(CCCC2)C1)N1CCNC[C@H]1c1ccc(F)cc1 [Example 369, 3-(((S)-7-((R)-2-(4-Fluorophenyl)pipera-zine-1-carbonyl)-10-hydroxy-7-azaspiro[4.5]decan-10-yl)methyl)-6-phenylpyrimidin-4(3H)-one]
The pIC50 of the first is lower: 5.30 to 6.30 for the first, greater than 6.30 for the second.

Cc1ccccc1-c1cc(=O)n(C[C@]2(O)CCN(C(=O)N3CCNC[C@H]3c3ccccc3)CC23CCCC3)cn1 [Example 340, 3-(((S)-10-Hydroxy-7-((R)-2-phenylpiperazine-1-carbonyl)-7-azaspiro[4.5]decan-10-yl)methyl)-6-(o-tolyl)pyrimidin-4(3H)-one] and Cc1cccc(F)c1-c1cc(=O)n(C[C@]2(O)CCN(C(=O)N3CCNC[C@H]3c3ccccc3)CC23CCCC3)cn1 [Example 382, 6-(2-Fluoro-6-meth-ylphenyl)-3-(((S)-10-hydroxy-7-((R)-2-phenylpiperazine-1-carbonyl)-7-aza-spiro[4.5]decan-10-yl)methyl)pyrimidin-4(3H)-one] cannot be ordered by pIC50: greater than 6.30 for the first, greater than 6.30 for the second.

Compared with O=C(NCc1ccccc1)N1CCC(O)(Cn2cnc(-c3ccncc3)cc2=O)C2(CCCC2)C1 (stereo not shown) [Example 201, N-Benzyl-10-hydroxy-10-((6-oxo-4-(pyridin-4-yl)pyrimidin-1(6H)-yl)methyl)-7-azaspiro[4.5]decane-7-carboxamide], O=C(N[C@H](c1ccccc1)C(F)(F)F)N1CC[C@@](O)(Cn2cnc(-c3ccccc3)cc2=O)C2(CCCC2)C1 [Example 294, (S)-10-Hydroxy-10-((6-oxo-4-phenylpyrimidin-1(6H)-yl)methyl)-N—((R)-2,2,2-trifluoro-1-phenylethyl)-7-azaspiro[4.5]decane-7-carboxamide] is higher in pIC50: 5.30 to 6.30 for the first, greater than 6.30 for the second.

Compared with O=C(N1CCCC2(CC2)C1)N1CCC(O)(Cn2cnc(-c3ccccc3)cc2=O)C2(CCCC2)C1 (stereo not shown) [Example 250, 3-((10-Hydroxy-7-(5-azaspiro[2.5]octane-5-carbonyl)-7-azaspiro[4.5]decan-10-yl)methyl)-6-phenylpyrimidin-4(3H)-one], COCC1CNCCN1C(=O)N1CCC(O)(Cn2cnc(-c3ccccc3)cc2=O)C2(CCCC2)C1 (stereo not shown) [Example 277, 3-((10-Hydroxy-7-(2-(methoxymethyl)piperazine-1-carbonyl)-7-azaspiro[4.5]decan-10-yl)methyl)-6-phenylpyrimidin-4(3H)-one] is lower in pIC50: 4.30 to 5.30 for the first, 3.60 to 4.30 for the second.

First: C[C@H](CC(F)(F)F)C(=O)N1CCC(O)(Cn2cnc3cc(Cl)ccc3c2=O)C2(CCCC2)C1 (stereo partly drawn) [Example 134, 7-Chloro-3-((10-hydroxy-7-((R)-4,4,4-trifluoro-2-methylbutanoyl)-7-azaspiro[4.5]decan-10-yl)methyl)quinazolin-4(3H)-one]
Second: C[C@H](CC(F)(F)F)C(=O)N1CCC(O)(Cn2cnc3sccc3c2=O)C2(CCCC2)C1 (stereo partly drawn) [Example 123, 3-((10-Hydroxy-7-((R)-4,4,4-trifluoro-2-methylbutanoyl)-7-azaspiro[4.5]decan-10-yl)methyl)thieno[2,3-d]pyrimidin-4(3H)-one]
The pIC50 of the first is higher: 4.30 to 5.30 for the first, 3.60 to 4.30 for the second.

O=C(N1CCC(O)(Cn2cnc(-c3ccccc3)cc2=O)C2(CCOCC2)C1)N1CCOC[C@H]1c1ccccc1 (stereo partly drawn) [Example 325, 3-((5-Hydroxy-2-((R)-3-phenylmorpholine-4-carbonyl)-9-oxa-2-azaspiro[5.5]undecan-5-yl)methyl)-6-phenylpyrimidin-4(3H)-one] and O=C(N1CC[C@@](O)(Cn2cnc(-c3ccccc3)cc2=O)C2(CCCC2)C1)N1CCSC[C@H]1c1cc(F)ccc1F [Example 393, 3-(((S)-7-((R)-3-(2,5-Difluorophenyl)thio-morpholine-4-carbo-nyl)-10-hydroxy-7-azaspiro[4.5]decan-10-yl)methyl)-6-phenylpyrimidin-4(3H)-one] cannot be ordered by pIC50: greater than 6.30 for the first, greater than 6.30 for the second.

C[C@H](CC1CCCCC1)C(=O)N1CCC(O)(CN2C(=O)COc3c(N)cccc32)C2(CCCC2)C1 (stereo partly drawn) [Example 37, 8-Amino-4-((7-((R)-3-cyclohexyl-2-methylpropanoyl)-10-hydroxy-7-azaspiro[4.5]decan-10-yl)methyl)-2H-benzo[b][1,4]oxazin-3(4H)-one] and C[C@H](CC1CCCCC1)C(=O)N1CCC(O)(Cn2cc(S(C)(=N)=O)c(-c3ccccc3)cc2=O)C(C)(C)C1 (stereo partly drawn) [Example 68, 1-((1-((R)-3-Cyclohexyl-2-methylpropanoyl)-4-hydroxy-3,3-dimethylpiperidin-4-yl)methyl)-5-(S-methylsulfonimidoyl)-4-phenylpyridin-2(1H)-one] fall in the same range of pIC50: 5.30 to 6.30 for the first, 5.30 to 6.30 for the second.

Cn1nccc1-c1ccn(C[C@]2(O)CCN(C(=O)N3CCNC[C@H]3c3ccccc3)CC23CCCC3)c(=O)c1 [Example 328, 1-(((S)-10-Hydroxy-7-((R)-2-phenylpiperazine-1-carbonyl)-7-azaspiro[4.5]decan-10-yl)methyl)-4-(1-methyl-1H-pyrazol-5-yl)pyridin-2(1H)-one] and O=C(N1CC[C@@](O)(Cn2cnc(N3CCCC3)cc2=O)C2(CCCC2)C1)N1CCNC[C@H]1c1ccccc1 [Example 290, 3-(((S)-10-Hydroxy-7-((R)-2-phenylpiperazine-1-carbonyl)-7-azaspiro[4.5]decan-10-yl)methyl)-6-(pyrrolidin-1-yl)pyrimidin-4(3H)-one] cannot be ordered by pIC50: greater than 6.30 for the first, greater than 6.30 for the second.

First: C[C@H](CC(F)(F)F)C(=O)N1CCC(O)(CN2Cc3ncccc3C2=O)C2(CCCC2)C1 (stereo partly drawn) [Example 104, 6-((10-Hydroxy-7-((R)-4,4,4-trifluoro-2-methylbutanoyl)-7-azaspiro[4.5]decan-10-yl)methyl)-6,7-dihydro-5H-pyrrolo[3,4-b]pyridin-5-one]
Second: O=C(N1CC[C@@](O)(Cn2cnc(N3CC4CC4C3)cc2=O)C2(CCCC2)C1)N1CCNC[C@H]1c1ccccc1 (stereo partly drawn) [Example 352, 6-(3-Aza-bicyclo[3.1.0]hexan-3-yl)-3-(((S)-10-hydroxy-7-((R)-2-phenylpiperazine-1-carbonyl)-7-aza-spiro[4.5]decan-10-yl)methyl)pyrimidin-4(3H)-one]
The pIC50 of the first is lower: 3.60 to 4.30 for the first, greater than 6.30 for the second.
